{
  "source": "the supplement of paper PMC11208160",
  "data": [
    {"test": "recombinant UMI read abundance after kanamycin selection (control-corrected) (log10(CPM+1)); higher = more efficient recombination; extreme values may be limits of the assay; sequences stand for … in AGTGCAGAGAAAATCGGCCAGTTTTCTCTGCCTGCAGTCCGCATGCCGTGGGACCCCTTGGGTTCTAACCTGTTGCCTAGATTTATGCAGCGGACTGCCTTTCTCCCAAAGTGATAAACCGG…AGGTTGGTTTCACT; site = the 11-nt donor", "summary_of_the_method": "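Each donor and donor-binding-loop pair was tracked by a 12-nt UMI on a plasmid carrying a promoterless kanamycin gene. With a second plasmid supplying a fixed target and T7-inducible IS621 bridge recombinase, the pool was plated in Escherichia coli on IPTG (0.07 mM) plus kanamycin or unselected. Sequencing of recombinant UMIs across the donor–target junction gave counts expressed as log10(CPM+1) after replicate averaging and control-derived scaling.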", "values": [
      {"sequence": "TAACTCCCATGGACCGGTTTTCCCGGTAATCCGTATTTGGC (site TAACTCCCTGC)", "recombinant UMI read abundance (log10)": 0.847},
      {"sequence": "TAACTTCCATGGACCGGTTTTCCCGGTAATCCGTATTTGCA (site TAACTTCCTTG)", "recombinant UMI read abundance (log10)": 0.949},
      {"sequence": "TAAGAAACATGGACCGGTTTTCCCGGTAATCCGTATTTGCT (site TAAGAAACTAG)", "recombinant UMI read abundance (log10)": 2.12},
      {"sequence": "TAAGACCCATGGACCGGTTTTCCCGGTAATCCGTATTTGTT (site TAAGACCCTAA)", "recombinant UMI read abundance (log10)": 0.806},
      {"sequence": "TAAGCAGCATGGACCGGTTTTCCCGGTAATCCGTATTTGCT (site AAAGCAGCTAG)", "recombinant UMI read abundance (log10)": 0.00963},
      {"sequence": "TAAGCAGCATGGACCGGTTTTCCCGGTAATCCGTATTTGCT (site CAAGCAGCTAG)", "recombinant UMI read abundance (log10)": 0.371},
      {"sequence": "TAAGCAGCATGGACCGGTTTTCCCGGTAATCCGTATTTGCT (site GAAGCAGCTAG)", "recombinant UMI read abundance (log10)": 0.00441},
      {"sequence": "TAAGCAGCATGGACCGGTTTTCCCGGTAATCCGTATTTGCT (site TAAGCAGCTAG)", "recombinant UMI read abundance (log10)": 2.32},
      {"sequence": "TAAGGTCCATGGACCGGTTTTCCCGGTAATCCGTATTTGTA (site TAAAGTCCTTA)", "recombinant UMI read abundance (log10)": 0.294},
      {"sequence": "TAAGGTCCATGGACCGGTTTTCCCGGTAATCCGTATTTGTA (site TAACGTCCTTA)", "recombinant UMI read abundance (log10)": 0.0087},
      {"sequence": "TAAGGTCCATGGACCGGTTTTCCCGGTAATCCGTATTTGTA (site TAAGGTCCTTA)", "recombinant UMI read abundance (log10)": 2.08},
      {"sequence": "TAAGGTCCATGGACCGGTTTTCCCGGTAATCCGTATTTGTA (site TAATGTCCTTA)", "recombinant UMI read abundance (log10)": 0.00238},
      {"sequence": "TAAGGTGCATGGACCGGTTTTCCCGGTAATCCGTATTTGTA (site TAAGGTGCTTA)", "recombinant UMI read abundance (log10)": 2.58},
      {"sequence": "TAAGTCACATGGACCGGTTTTCCCGGTAATCCGTATTTGGG (site AAAGTCACTCC)", "recombinant UMI read abundance (log10)": 0.0244},
      {"sequence": "TAAGTCACATGGACCGGTTTTCCCGGTAATCCGTATTTGGG (site CAAGTCACTCC)", "recombinant UMI read abundance (log10)": 0.0119},
      {"sequence": "TAAGTCACATGGACCGGTTTTCCCGGTAATCCGTATTTGGG (site GAAGTCACTCC)", "recombinant UMI read abundance (log10)": 0.00751},
      {"sequence": "TAAGTCACATGGACCGGTTTTCCCGGTAATCCGTATTTGGG (site TAAGTCACTCC)", "recombinant UMI read abundance (log10)": 0.00997},
      {"sequence": "TAAGTGCCATGGACCGGTTTTCCCGGTAATCCGTATTTGAC (site TAAGTGCCTGT)", "recombinant UMI read abundance (log10)": 0.999},
      {"sequence": "TAATATCCATGGACCGGTTTTCCCGGTAATCCGTATTTGTC (site TAATATCCTGA)", "recombinant UMI read abundance (log10)": 0.252},
      {"sequence": "TAATGAGCATGGACCGGTTTTCCCGGTAATCCGTATTTGGC (site TAATGAGCTAC)", "recombinant UMI read abundance (log10)": 0.253},
      {"sequence": "TAATGAGCATGGACCGGTTTTCCCGGTAATCCGTATTTGGC (site TAATGAGCTCC)", "recombinant UMI read abundance (log10)": 0.0259},
      {"sequence": "TAATGAGCATGGACCGGTTTTCCCGGTAATCCGTATTTGGC (site TAATGAGCTGC)", "recombinant UMI read abundance (log10)": 2.42},
      {"sequence": "TAATGAGCATGGACCGGTTTTCCCGGTAATCCGTATTTGGC (site TAATGAGCTTC)", "recombinant UMI read abundance (log10)": 0.585},
      {"sequence": "TAATGGCCATGGACCGGTTTTCCCGGTAATCCGTATTTGAT (site TAATGGCCTAT)", "recombinant UMI read abundance (log10)": 0.00507},
      {"sequence": "TACAAACCATGGACCGGTTTTCCCGGTAATCCGTATTTGGT (site AACAAACCTAC)", "recombinant UMI read abundance (log10)": 0},
      {"sequence": "TACAAACCATGGACCGGTTTTCCCGGTAATCCGTATTTGGT (site CACAAACCTAC)", "recombinant UMI read abundance (log10)": 0.0034},
      {"sequence": "TACAAACCATGGACCGGTTTTCCCGGTAATCCGTATTTGGT (site GACAAACCTAC)", "recombinant UMI read abundance (log10)": 0},
      {"sequence": "TACAAACCATGGACCGGTTTTCCCGGTAATCCGTATTTGGT (site TACAAACCTAC)", "recombinant UMI read abundance (log10)": 0.00495},
      {"sequence": "TACAATTCATGGACCGGTTTTCCCGGTAATCCGTATTTGCC (site TACAATTCTGG)", "recombinant UMI read abundance (log10)": 0.00632},
      {"sequence": "TACAATTCATGGACCGGTTTTCCCGGTAATCCGTATTTGCC (site TCCAATTCTGG)", "recombinant UMI read abundance (log10)": 0},
      {"sequence": "TACAATTCATGGACCGGTTTTCCCGGTAATCCGTATTTGCC (site TGCAATTCTGG)", "recombinant UMI read abundance (log10)": 0.434},
      {"sequence": "TACAATTCATGGACCGGTTTTCCCGGTAATCCGTATTTGCC (site TTCAATTCTGG)", "recombinant UMI read abundance (log10)": 0},
      {"sequence": "TACAGCGCATGGACCGGTTTTCCCGGTAATCCGTATTTGGC (site TACAGCGCTGC)", "recombinant UMI read abundance (log10)": 2.37},
      {"sequence": "TACAGTACATGGACCGGTTTTCCCGGTAATCCGTATTTGGT (site TACAGTACTAC)", "recombinant UMI read abundance (log10)": 0.439},
      {"sequence": "TACAGTCCATGGACCGGTTTTCCCGGTAATCCGTATTTGCG (site TACAGTCCTCG)", "recombinant UMI read abundance (log10)": 0.004},
      {"sequence": "TACATAGCATGGACCGGTTTTCCCGGTAATCCGTATTTGGG (site TACATAGCTCC)", "recombinant UMI read abundance (log10)": 0.013},
      {"sequence": "TACATGGCATGGACCGGTTTTCCCGGTAATCCGTATTTGCT (site TACATGGCTAG)", "recombinant UMI read abundance (log10)": 1.32},
      {"sequence": "TACCACACATGGACCGGTTTTCCCGGTAATCCGTATTTGTC (site TACCACACTGA)", "recombinant UMI read abundance (log10)": 2.09}
    ]}
  ]
}
